Experiment [1] concerns EC1010 CMY-6. Put plainly: Aztreonam potentiation assay (MPC@4) and aztreonam MIC. The note with it: strain EC1010 CMY-6. The class given is cell-based. Here is the method:
(§1) The potency and spectrum of β-lactamase inhibitors (BLIs) was determined by assessing their aztreonam potentiation activity in a dose titration potentiation assay using strains of various bacteria that are resistant to aztreonam due to expression of various β-lactamases. Aztreonam is a monobactam antibiotic and is hydrolyzed by the majority of β-lactamases that belong to class A or C (but not class B or D). The potentiation effect was observed as the ability of BLI compounds to inhibit growth in the presence of sub-inhibitory concentration of aztreonam. […] Aztreonam was present in the test medium at 4 μg/mL. Compounds were tested at concentrations up to 20 μg/mL. In this assay, potency of compounds was reported as the minimum concentration of BLI required to inhibit growth of bacteria in the presence of 4 μg/mL of aztreonam (MPC@4). Table 1 summarizes the BLI potency of aztreonam potentiation (MPC@4) for various strains overexpressing class A (ESBL and KPC), and class C β-lactamases. Aztreonam MIC for each strain is also shown.

For experiment [2], the system named is ECL1002. The description is as above. The format is cell-based. The note with it: strain ECL1002. Here is the method:
as §1

For experiment [3], the system named is KP1004 KPC-2. The experiment is described as above. The class given is cell-based. On the procedure:
as §1

The test system of experiment [4] is KP1005 CTX-M-14. Described as above. The format is cell-based. Here is the method: as §1
The subject of experiment [5] is KP1009 CTX-M-15. Described as above. The class given is cell-based. The note with it: strain KP1009 CTX-M-15. Here is the method:
as §1

The subject of experiment [6] is KP1010 SHV-12. Described as above. The note with it: strain KP1010 SHV-12. The format is cell-based. Here is the method: as §1
The subject of experiment [7] is ec302 TEM-10. The description is as above. The class given is cell-based. The note with it: strain ec302 TEM-10. On the procedure:
as §1

In experiment [8] the test system is ec308 SHV-5. The description is as above. The note with it: strain ec308 SHV-5. The format is cell-based. On the procedure: as §1
Experiment [9] deals with KP1004 KPC-2. Put plainly: Biapenem potentiation assay (MPC@1) and biapenem MIC. The class given is cell-based. The note with it: strain KP1004 KPC-2. Here is the method: (§2) β-lactamase inhibitors were also tested for their ability to potentiate the carbapenem biapenem against strains producing class A (KPC), class D (OXA-48), and class B (metallo β-lactamases, NDM-1 and VIM-1) carbapenemases. The potentiation effect was observed as the ability of BLI compounds to inhibit growth in the presence of a sub-inhibitory concentration of biapenem. […] Biapenem was present in the test medium at 1 μg/mL. Compounds were tested at concentrations up to 20 μg/mL. In this assay, potency of compounds was reported as the minimum concentration of BLI required to inhibit growth of bacteria in the presence of 1 μg/mL of biapenem (MPC@1). Table 3 summarizes the BLI potency of biapenem potentiation (MPC@1) for four strains overexpressing class A (KPC), class D (OXA-48), and class B (NDM-1 and VIM-1) carbapenemases. Biapenem MIC for each strain is also shown.

Experiment [10] deals with KP1081 NDM-1. Described as above. The class given is cell-based. The note with it: strain KP1081 NDM-1. Here is the method:
as §2

Experiment [11] deals with KP1086 OXA-48. The description is as above. The format is cell-based. The note with it: strain KP1086 OXA-48. On the procedure: as §2
For experiment [12], the system named is strains producing class A (KPC), class D (OXA-48), and class B (NDM-1 and VIM-1) carbapenemases. Briefly: Biapenem MIC of the test strains (panel). The class given is cell-based. The note with it: span over all test strains of Table 3. On the procedure:
as §2

The subject of experiment [13] is EC1010 CMY-6. Briefly: Tigemonam potentiation assay (MPC@4) and tigemonam MIC. The note with it: strain EC1010 CMY-6. The class given is cell-based. On the procedure: (§3) Selected β-lactamase inhibitors were also tested for their ability to potentiate the monobactam tigemonam. […] Tigemonam was present in the test medium at 4 μg/mL. Compounds were tested at concentrations up to 20 μg/mL. In this assay, potency of compounds was reported as the minimum concentration of BLI required to inhibit growth of bacteria in the presence of 4 μg/mL of tigemonam (MPC@4). Table 2 summarizes the BLI potency of tigemonam potentiation (MPC@4) for various strains overexpressing class A (ESBL) and class C β-lactamases.

The test system of experiment [14] is ECL1002. The description is as above. The note with it: strain ECL1002. The format is cell-based. On the procedure:
as §3

Experiment [15] deals with KP1005 CTX-M-14. Described as above. The format is cell-based. The note with it: strain KP1005 CTX-M-14. On the procedure:
as §3

The test system of experiment [16] is KP1009 CTX-M-15. The experiment is described as above. The class given is cell-based. The note with it: strain KP1009 CTX-M-15. On the procedure: as §3
Experiment [17] relates to KP1010 SHV-12. Described as above. The class given is cell-based. The note with it: strain KP1010 SHV-12. Here is the method: as §3
The test system of experiment [18] is ec302 TEM-10. The description is as above. The class given is cell-based. The note with it: strain ec302 TEM-10. On the procedure:
as §3

Experiment [19] deals with ec308 SHV-5. The description is as above. The class given is cell-based. The note with it: strain ec308 SHV-5. Here is the method:
as §3

The subject of experiment [20] is KP1054 VIM-1. Put plainly: Biapenem potentiation assay (MPC@1) and biapenem MIC. The class given is cell-based. The note with it: minimum BLI concentration inhibiting growth with biapenem 1 μg/mL; strain KP1054 VIM-1; tested up to 20 μg/mL. On the procedure:
as §2

Experiment [21] deals with AB1053 OXA-72. Put plainly: Meropenem potentiation assay (MPC@8) and meropenem MIC. The class given is cell-based, Acinetobacter baumannii. The note with it: A. baumannii strain AB1053 OXA-72. Here is the method: (§4) β-lactamase inhibitors were also tested for their ability to potentiate the carbapenem meropenem against strains of Acinetobacter baumannii producing class D (OXA-23 and OXA-72) carbapenemases. […] Meropenem was present in the test medium at 8 μg/mL. Compounds were tested at concentrations up to 20 μg/mL. In this assay, potency of compounds was reported as the minimum concentration of BLI required to inhibit growth of bacteria in the presence of 8 μg/mL of meropenem (MPC@8).

The test system of experiment [22] is AB1054 OXA-23. Described as above. The format is cell-based, Acinetobacter baumannii. On the procedure:
as §4

Setting [23] is: minimum BLI concentration inhibiting growth with aztreonam 4 μg/mL, tested up to 20 μg/mL.
The mark [24] stands for this setting: minimum BLI concentration inhibiting growth with tigemonam 4 μg/mL, tested up to 20 μg/mL.
Setting [25] is: minimum BLI concentration inhibiting growth with biapenem 1 μg/mL, tested up to 20 μg/mL.

On to `C[C@H]1[C@H](NC(=O)/C(=N\OC(C)(C)C(=O)O)c2csc(N)n2)C(=O)N1S(=O)(=O)O` [Aztreonam], for which the MIC in [1] (aztreonam alone) is over 128 mg/L; in experiment [2] (aztreonam alone) it was 64 mg/L; in experiment [3] (read-out: Aztreonam MIC) it was over 128 mg/L; in experiment [4] (read-out: Aztreonam MIC), over 128 mg/L; in experiment [5] (aztreonam alone), over 128 mg/L; in experiment [6] (aztreonam alone), 64 mg/L. The MIC in [7] (aztreonam alone) is 128 mg/L; in experiment [8] (aztreonam alone), over 128 mg/L.

On to `C[C@@H](O)[C@H]1C(=O)N2C(C(=O)[O-])=C(SC3Cn4cnc[n+]4C3)[C@H](C)[C@H]12` (stereo partly drawn) [Biapenem], for which the MIC is 32 mg/L in [9] (biapenem alone), 16 mg/L in experiment [10] (biapenem alone), 16 mg/L in [11] (biapenem alone) and 16 to 32 mg/L in experiment [12].

Take `COc1ccc2c(c1C(=O)O)OB(O)CC2Cn1cc(CO)nn1` (stereo not drawn) [Compound 16, 2-hydroxy-4-[[4-(hydroxymethyl)triazol-1-yl]methyl]-7-methoxy-3,4-dihydro-1,2-benzoxaborinine-8-carboxylic Acid]: the “AZT MPC4 CMY-6 EC1010” value in [1] (setting [23]) is reported as “X (X = MPC@4 ≤ 5 μg/mL)”. For the same molecule, in experiment [2] (setting [23]), the “AZT MPC4 ECL1002” value is listed as “X (X = MPC@4 ≤ 5 μg/mL)”. The “AZT MPC4 KPC-2 KP1004” value in experiment [3] (minimum BLI concentration inhibiting growth with aztreonam 4 μg/mL, strain KP1004 KPC-2, tested up to 20 μg/mL) is “X (X = MPC@4 ≤ 5 μg/mL)”. Also, the “AZT MPC4 CTX-M-14 KP1005” value in experiment [4] (minimum BLI concentration inhibiting growth with aztreonam 4 μg/mL, strain KP1005 CTX-M-14, tested up to 20 μg/mL) is on record as “X (X = MPC@4 ≤ 5 μg/mL)”. Also, the “AZT MPC4 CTX-M-15 KP1009” value in experiment [5] (setting [23]) is “X (X = MPC@4 ≤ 5 μg/mL)”. Also, the “AZT MPC4 SHV-12 KP1010” value in experiment [6] (setting [23]) was “X (X = MPC@4 ≤ 5 μg/mL)”. For the same molecule, in [7] (setting [23]), the “AZT MPC4 TEM-10 ec302” value is recorded as “X (X = MPC@4 ≤ 5 μg/mL)”. Also, the “AZT MPC4 SHV-5 ec308” value in [8] (setting [23]) was “X (X = MPC@4 ≤ 5 μg/mL)”. The “TIG MPC4 CMY-6 EC1010” value in experiment [13] (setting [24]) is given as “X (X = MPC@4 ≤ 5 μg/mL)”. Moreover, the “TIG MPC4 ECL1002” value in [14] (setting [24]) is on record as “X (X = MPC@4 ≤ 5 μg/mL)”. Also, the “TIG MPC4 CTX-M-14 KP1005” value in experiment [15] (setting [24]) is “Y (Y = 5 μg/mL < MPC@4 ≤ 20 μg/mL)”. In addition, the “TIG MPC4 CTX-M-15 KP1009” value in [16] (setting [24]) is reported as “X (X = MPC@4 ≤ 5 μg/mL)”. For the same molecule, the “TIG MPC4 SHV-12 KP1010” value in [17] (setting [24]) was “X (X = MPC@4 ≤ 5 μg/mL)”. Besides, the “TIG MPC4 TEM-10 ec302” value in [18] (setting [24]) is reported as “Y (Y = 5 μg/mL < MPC@4 ≤ 20 μg/mL)”. Further, the “TIG MPC4 SHV-5 ec308” value in experiment [19] (setting [24]) is on record as “X (X = MPC@4 ≤ 5 μg/mL)”. Further, the “BPM MPC1 KP1004 KPC-2” value in [9] (setting [25]) is “X (X = MPC@1 ≤ 5 μg/mL)”. The “BPM MPC1 KP1054 VIM-1” value in experiment [20] is “Y (Y = 5 μg/mL < MPC@1 ≤ 20 μg/mL)”. Also, in experiment [10] (setting [25]), the “BPM MPC1 KP1081 NDM-1” value was “Y (Y = 5 μg/mL < MPC@1 ≤ 20 μg/mL)”. Also, in [11] (setting [25]), the “BPM MPC1 OXA-48 KP1086” value is reported as “Y (Y = 5 μg/mL < MPC@1 ≤ 20 μg/mL)”. For the same molecule, the “MPM MPC8 AB1053 OXA-72” value in experiment [21] (minimum BLI concentration inhibiting growth with meropenem 8 μg/mL, tested up to 20 μg/mL) is reported as “X (X = MPC@1 ≤ 5 μg/mL)”. The “MPM MPC8 AB1054 OXA-23” value in experiment [22] (minimum BLI concentration inhibiting growth with meropenem 8 μg/mL, A. baumannii strain AB1054 OXA-23, tested up to 20 μg/mL) is listed as “Y (Y = 5 μg/mL < MPC@1 ≤ 20 μg/mL)”.

Consider `C[C@@H](O)[C@H]1C(=O)N2C(C(=O)O)=C(S[C@@H]3CN[C@H](C(=O)N(C)C)C3)[C@H](C)[C@H]12` [Meropenem], for which the MIC in experiment [21] (Acinetobacter baumannii, meropenem alone) is over 64 mg/L; in experiment [22] (Acinetobacter baumannii, read-out: Meropenem MIC), 32 mg/L.

For `CC1(C)[C@H](NC(=O)/C(=N\OCC(=O)O)c2csc(N)n2)C(=O)N1OS(=O)(=O)O` [Tigemonam], the “Tigemonam MIC” value in experiment [13] (tigemonam alone) is 16 mg/L; in [14] (tigemonam alone), 32 mg/L; in experiment [15] (tigemonam alone), over 64 mg/L; in experiment [16] (tigemonam alone), over 64 mg/L; in experiment [17] (tigemonam alone), over 64 mg/L; in experiment [18] (tigemonam alone) it was over 64 mg/L. Also, the “Tigemonam MIC” value in experiment [19] (tigemonam alone) is over 64 mg/L.

Usually MIC stands for the least concentration at which growth counts as inhibited.

The record behind these values is patent US12016868B2, “Boronic acid derivatives and therapeutic uses thereof” (Qpex Biopharma, Inc., priority 2018, dated 2024).
